Experimental data as given in paper PMC3552814, “Elimination Rates of Dioxin Congeners in Former Chlorophenol Workers from Midland, Michigan” (Environmental Health Perspectives, 2012).
Like-named read-outs stand apart in the source and are kept apart here.

What was measured:
[1] = parameters: method as in Patterson et al. 2009; conditions: persons ≥ 60 years of age, ref Patterson et al. 2009, cited from earlier work; for NHANES (2003–2004) P50: 50th percentile, LODs variable; for NHANES (2003–2004) P95: 95th percentile
[2] = Elimination half-lives from serial serum samples, first-order one-compartment model; assay type: in vivo; conditions: human, serum (lipid-adjusted), other: occupational exposure, 56 participants
Source text: Elimination rates. Changes in measured concentrations of persistent compounds such as PCDDs and PCDFs reflect not only intrinsic elimination rates but also any ongoing intakes of the compounds and changes in the volume of distribution, in this case, the volume of body lipids ([Bartell 2012]; [Ritter et al. 2009], [2011]). If current body concentrations are high relative to steady-state concentrations associated with current background intake rates, apparent elimination rates will approximate intrinsic elimination rates ([Bartell 2012]; [van der Molen et al. 1998]). If, on the other hand, background intakes are high compared with current body concentrations, the estimated apparent elimination rate will be lower than the intrinsic rates. Robust data regarding ongoing congener intake rates were not available, so the elimination rates were first calculated based on net rate of change of the congeners, which reflects both intrinsic elimination rates and unmeasured intake rates, termed “apparent” elimination rates.
We calculated apparent elimination rates in two ways: based on changes in concentration, or based on changes in estimated body amounts. For the former approach, concentrations of congener i in 2005 and 2010 (Ci,2005 and Ci,2010, respectively) and time between sampling dates (Δt), were used to estimate the elimination rate (ki):
Concentrations of lipophilic compounds may change in response to changes in the volume of distribution (increase or decrease in amount of body fat), even in the absence of any elimination or additional exposure ([Charlier et al. 2002]; [Chevrier et al. 2000]; [Hue et al. 2006]; [Imbeault et al. 2001]; [Pelletier et al. 2002]; [Walford et al. 1999]). Thus, we also estimated the rate of change in estimated whole body mass of each congener. For the approach based on changes in estimated mass of dioxins in the body, the congener concentrations in 2005 and 2010 were replaced by the estimated amounts, A, of congener i in the body:
where PBF is percent body fat estimated using an age-, sex-, and body mass index (BMI)-specific formula, which has been validated in adults over a range of ages including those of the participants in this study ([Deurenberg et al. 1991]), BW is body weight in kilograms, and Ci is the serum lipid–adjusted concentration of congener i. This approach assumes that the compound is distributed solely in body lipid. The resulting amount, Ai, calculated for each sampling time and congener was used in Equation 1 in place of concentration for calculating the apparent whole-body mass-based elimination rate.
Elimination half-lives (t1/2) corresponding to the estimated elimination rates, (k) were calculated for some comparisons with previous literature:
Inclusion of plausible background exposures. […] Changes in concentration or estimated mass of compound in the body reflect the net effect of both elimination and any ongoing exposures between sampling time points. Under a first-order model, the amount of compound in the body in 2010 (A2010) is a function of both the intrinsic elimination rate, kint, and the ongoing exposure rate between sampling time points:
where D is the yearly dose rate in nanograms per year, and A2005 is the starting amount in 2005. As described by [Ritter et al. (2011)], intrinsic elimination rates can be estimated if ongoing exposure levels are known or can be estimated.

[3] = parameters: method as in van den Berg et al. 2006; conditions: WHO toxic equivalency factor; ref van den Berg et al. 2006; cited from earlier work
[4] = cited from earlier work; for Half-life of elimination, Rohde et al. 1999 (mean) / Half-life of elimination, Flesch-Janys et al. 1996 (median): from change in concentration; for Half-life of elimination, Rohde et al. 1999 (mean): n = 6, ages 41–73 years, ref Rohde et al. 1999; for Half-life of elimination, Flesch-Janys et al. 1996 (median): n = 26 to 48, mean age 48.7 years at first sampling, ref Flesch-Janys et al. 1996
[5] = Serum lipid-adjusted dioxin congener concentrations in former chlorophenol workers, repeated blood sampling 2004–2005 and 2010; assay type: in vivo, human; conditions: for Mean percent change: change in concentration from 2004–2005 to 2010; for Concentration 2004–2005, Mean ± SD / Concentration 2010, Mean ± SD: serum, 56 Midland study participants
Source text: Participant selection. The selection strategy called for drawing a stratified random sample of workers included in the previous 2004–2005 blood draw. […] We used the 95th percentile of age-specific U.S. population concentrations for each congener identified in the National Health and Nutrition Examination Survey (NHANES; [Centers for Disease Control and Prevention 2009]) to define the upper ends of the background ranges. Nine strata were formed based jointly on previous serum levels of TCDD (high, > 50 ppt; moderate, 10–50 ppt; and background, < 10 ppt), representing workers in predominantly TCP processes, and OCDD (high, > 5,000 ppt; moderate, 1,000–5,000 ppt; and background, < 1,000 ppt), representing those with experience in PCP processes. We attempted to enroll participants representing each of these strata. Invitations to participate were sent to our target sample of 72 workers who were selected based on these congener concentration criteria.
Questionnaire and data collection methods. We conducted the serum analyses in 2010 using the same protocol, procedures, and laboratory as in the 2004–2005 blood draw ([Collins et al. 2006]). The serum samples were tested for 7 polychlorinated dibenzo-p-dioxins (PCDDs), 10 polychlorinated dibenzofurans (PCDFs), and 15 polychlorinated biphenyls (PCBs). […] The study was conducted pursuant to approval and oversight by the Dow Human Subjects Review Board in Midland, Michigan. All study participants gave informed consent.
On the day of examination in the fall of 2010, participants donated blood and completed the same questionnaire originally administered during the 2004–2005 sampling effort ([Collins et al. 2006]). The questionnaire addressed dietary and smoking habits, work history, and recent changes in weight. Height, weight, and blood pressure were also measured. Diagnosis of chloracne during occupational exposure was extracted from workplace medical records; the criteria for chloracne diagnosis were defined previously by [Bond et al. (1990)].

[6] = based on change in estimated mass of the congener in the body, read-out: Elimination half-lives [median (P25–P75)], Apparent, mass based (converted)
[7] = based on change in serum lipid concentration, read-out: Elimination half-lives [median (P25–P75)], Apparent, concentration based (converted)
[8] = change in body mass after accounting for plausible background intake (Table 3), read-out: Elimination half-lives [median (P25–P75)], Estimated intrinsic (converted)

Compound	NHANES (2003–2004) P50 [1] [pg/g lipid]	NHANES (2003–2004) P95 [1]	half-life [2, 6] [days]	half-life [2, 7] [days]	half-life [2, 8] [days]	TEF [3]	Half-life of elimination, Rohde et al. 1999 (mean) [4] [years]	Half-life of elimination, Flesch-Janys et al. 1996 (median) [4] [years]	Mean percent change [5]	Concentration 2004–2005, Mean ± SD [5] [pg/g lipid]	Concentration 2010, Mean ± SD [5] [pg/g lipid]	Median concentration at first sampling time point ([4]; ref Flesch-Janys et al. (1996)) [pg/g lipid]	2004–2005 median concentration ([5]; present study) [pg/g lipid]
Clc1cccc2c1Oc1c(Cl)c(Cl)c(Cl)c(Cl)c1O2 [PeCDD, pentachlorodibenzo-p-dioxin]	8.0	17.7 pg/g lipid	4240	3910	3910	1	13.9	15.7	–28%	19.7 ± 11.3	14.2 ± 8.6	–	–
Clc1cc2c(c(Cl)c1Cl)Oc1c(cc(Cl)c(Cl)c1Cl)O2 [Congener 19HxCDD, 1,2,3,7,8,9-hexachlorodibenzo-p-dioxin]	–	16.2 pg/g lipid	2480	2260	2300	0.1	7.7	4.9	–42%	19.4 ± 14.5	11.3 ± 9.8	–	–
Clc1cc2c(c(Cl)c1Cl)Oc1c(Cl)c(Cl)c(Cl)c(Cl)c1O2 [HpCDD, 1,2,3,4,7,8,9-heptachlorodibenzo-p-dioxin]	–	–	2780	2560	2450	0.01	4.3	3.7	–46%	159.9 ± 161.8	87.1 ± 83.3	641	88.6
Clc1cc2c(cc1Cl)Oc1cc(Cl)c(Cl)cc1O2 [TCDD, 2,3,7,8-tetrachlorodibenzo-p-dioxin]	–	7.9 pg/g lipid	2560	2370	2370	1	8.7	7.2	–39%	21.1 ± 30.0	12.9 ± 19.6	–	–
Clc1c(Cl)c(Cl)c2c(c1Cl)Oc1c(Cl)c(Cl)c(Cl)c(Cl)c1O2 [OCDD, octachlorodibenzo-p-dioxin]	370	1,180 pg/g lipid	3030	2850	2670	0.0003	8.7	6.7	–41%	1919.6 ± 2121.0	1124.7 ± 1232.0	–	–
Clc1cc2c(c(Cl)c1Cl)Oc1cc(Cl)c(Cl)c(Cl)c1O2 [Congener 16HxCDD, 1,2,3,6,7,8-hexachlorodibenzo-p-dioxin]	47.3	104 pg/g lipid	4020	3690	3290	0.1	11.6	13.1	–31%	136.6 ± 99.9	94.3 ± 70.8	–	–
Clc1cc2c(cc1Cl)Oc1c(Cl)c(Cl)c(Cl)c(Cl)c1O2 [Congener 14HxCDD, 1,2,3,4,7,8-hexachlorodibenzo-p-dioxin]	–	15.1 pg/g lipid	3000	2960	2560	0.1	13.9	8.4	–34%	16.0 ± 11.9	10.5 ± 7.9	–	–
